In data set [1] the target is T1, C-domain of rabbit lung ACE (Oryctolagus cuniculus, UniProt P12822).
T1 construct: on the C- and N-domain of a rabbit lung ACE using the FRET substrates; from tissue; host or cells: rabbit lung
T1 sequence (P12822 34-1310): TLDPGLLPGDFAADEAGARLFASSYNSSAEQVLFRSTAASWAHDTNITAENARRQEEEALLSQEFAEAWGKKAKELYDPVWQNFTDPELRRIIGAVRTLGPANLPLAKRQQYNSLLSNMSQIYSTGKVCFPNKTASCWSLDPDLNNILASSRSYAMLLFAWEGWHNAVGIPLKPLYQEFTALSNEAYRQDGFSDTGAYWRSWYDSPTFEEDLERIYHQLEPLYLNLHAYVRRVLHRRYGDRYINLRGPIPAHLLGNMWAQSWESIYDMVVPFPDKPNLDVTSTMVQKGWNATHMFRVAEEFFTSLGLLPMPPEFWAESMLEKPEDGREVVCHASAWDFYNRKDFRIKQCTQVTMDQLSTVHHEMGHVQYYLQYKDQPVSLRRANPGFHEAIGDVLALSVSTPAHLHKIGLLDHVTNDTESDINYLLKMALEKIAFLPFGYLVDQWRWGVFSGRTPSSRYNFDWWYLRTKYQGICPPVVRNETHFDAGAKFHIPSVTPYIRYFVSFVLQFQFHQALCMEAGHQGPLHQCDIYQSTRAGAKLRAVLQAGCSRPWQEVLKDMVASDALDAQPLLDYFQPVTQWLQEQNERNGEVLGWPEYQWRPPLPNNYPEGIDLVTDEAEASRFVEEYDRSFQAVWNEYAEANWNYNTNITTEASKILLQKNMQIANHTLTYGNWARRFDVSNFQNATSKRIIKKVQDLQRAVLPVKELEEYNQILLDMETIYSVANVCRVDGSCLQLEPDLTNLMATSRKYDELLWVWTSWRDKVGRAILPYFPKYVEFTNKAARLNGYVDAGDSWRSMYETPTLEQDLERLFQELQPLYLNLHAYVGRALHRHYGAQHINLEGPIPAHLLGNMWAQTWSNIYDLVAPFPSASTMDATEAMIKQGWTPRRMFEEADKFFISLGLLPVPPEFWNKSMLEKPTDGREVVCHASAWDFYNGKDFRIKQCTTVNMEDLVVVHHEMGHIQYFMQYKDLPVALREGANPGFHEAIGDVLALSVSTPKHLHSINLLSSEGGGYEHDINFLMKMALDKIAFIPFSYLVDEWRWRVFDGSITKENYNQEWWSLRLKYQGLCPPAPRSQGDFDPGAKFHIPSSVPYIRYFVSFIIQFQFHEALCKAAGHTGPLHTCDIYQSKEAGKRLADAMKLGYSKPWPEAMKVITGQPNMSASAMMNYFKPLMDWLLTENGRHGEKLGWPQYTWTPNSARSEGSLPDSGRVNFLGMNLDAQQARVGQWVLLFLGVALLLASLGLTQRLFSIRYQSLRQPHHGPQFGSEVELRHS
Put plainly: ACE domain-specific inhibition, C-domain (FRET substrate Abz-LFK(Dnp)-OH). In kind it is biochemical. The settings on record: for Inhibition (%) ± SD, C-Domain: Abz-LFK(Dnp)-OH [S] = 21 μM. Here is the method: (§1) ACE domain-specific inhibition studies were performed based on previously reported methods (Carmona et al., 2006 [57]; Lunow et al., 2015 [58]). Fluorescence resonance energy transfer (FRET) substrates, Abz-SDK(Dnp)P-OH and Abz-LFK(Dnp)-OH were used for the N-domain and C-domain, respectively. […] Briefly, 40 μL of assay buffer and 60 μL of the FRET substrate solutions were preincubated for 10 min at 37 °C, with the reaction started by adding 20 μL of diluted ACE solution (5 μL ACE + 15 μL 0.1 mol/L TRIS buffer) and fluorescence measured at λex/λem = 290/450 nm every minute at 37 °C for 30 min. The corresponding KM of the FRET substrates, determined using the Michaelis–Menten equation, was used as the substrate concentration of the FRET substrates used in percent inhibition studies. The inhibitory activity of 16 on both domains was determined as described above with the 40 μL solution containing the inhibitor (inhibitor in DMSO–Assay buffer, 1:9). The control samples, which correspond to 100% enzyme activity, were prepared by replacing the inhibitor solution with TRIS buffer. Dose–effect studies on 16 using the FRET substrates were used to determine the IC50 of this compound on both ACE domains. All experiments were performed in triplicates. The ACE-inhibitory activity was calculated using the following equation:(%) = (Ab − Aa) − (Cb − Ca)/(Ab − Aa) × 100(2) where Aa is the absorbance of control wells at 0 min; Ab is the absorbance of control wells at 15 min; Ca is the absorbance of the inhibitor wells at 0 min; and Cb is the absorbance of inhibitor wells at 15 min.

The test system of the next data set is Colo 205. Kind of data set: Antiproliferative MTT assay. Format: cell-based, human. The conditions noted are these: doxorubicin-sensitive cells; for IC50: read-out: IC50 (μM) ± SD, Colo 205. On the technique in general: Tetrazolium dyes change colour on reduction, which living cells bring about.
The target in the next data set is T2, ACE from rabbit lung (Oryctolagus cuniculus, UniProt P12822).
T2 construct: ACE from rabbit lung, A6778, Sigma-Aldrich, USA; purchased Sigma-Aldrich A6778; host or cells: rabbit lung (tissue-derived)
T2 sequence (P12822 34-1310): T1 sequence (P12822 34-1310)
Put plainly: ACE-inhibitory assay (ACE Activity Assay Kit, fluorescence). Format: biochemical. The settings on record: for inhibition at 90 µM: read-out: Inhibition at 90 μM (%) ± SD.

The subject of data set [2] is Colo 320/MDR-LRP expressing ABCB1. Put plainly: Antiproliferative MTT assay. The settings on record: for IC50: Homo sapiens, COLO 320, 72 h, read-out: IC50 (μM) ± SD, Colo 320.
A further data set relates to HIV transcription. The arrangement: method as in PMID 36975214. The settings on record: T cells; cited from earlier work.
The target of data set [3] is T3, N-domain of rabbit lung ACE (Oryctolagus cuniculus, UniProt P12822).
T3 construct: on the C- and N-domain of a rabbit lung ACE using the FRET substrates; from tissue; host or cells: rabbit lung
T3 sequence (P12822 34-1310): T1 sequence (P12822 34-1310)
Kind of data set: ACE domain-specific inhibition, N-domain (FRET substrate Abz-SDK(Dnp)P-OH). The conditions noted are these: for Inhibition (%) ± SD, N-Domain: Abz-SDK(Dnp)P-OH [S] = 72 μM. Format: biochemical. Here is the method:
as §1

Data set [4] relates to Colo 320/MDR-LRP expressing ABCB1.
For the next data set, the system named is velvetleaf seeds. Set-up: method as in doi:10.1007/BF02266955. The settings on record: cited from earlier work.

Like-named read-outs stand apart in the source and are kept apart here. A value given as a limit tells only on which side of the number the result lay.

By IC50 is commonly meant the concentration at which inhibition is half-maximal. By inhibition is commonly meant the drop in the measured response relative to a control, in per cent. Usually Inhibition stands for how much of the control response was suppressed.

`Oc1ccc(C2Oc3cc(O)cc4c3C2c2cc(O)cc(O)c2C(c2ccc(O)cc2)C4C2c3cc(O)cc4c3C(c3cc(O)cc(O)c3C2c2ccc(O)cc2)C(c2ccc(O)cc2)O4)cc1` (single isomer, unassigned; (-)) [Compound 16, (–)-hopeaphenol]: the “times lower affinity for the C-domain than for the N-domain” value in data set [1] (C-domain versus N-domain IC50) is 10 times. The “Inhibition (%) ± SD, C-Domain” value in data set [1] (inhibitor 10 μM) came out at 18.17 ± 0.5%; in data set [1] (inhibitor 50 μM), 23.39 ± 0.6%. The half-maximal inhibitory concentration (IC50) is greater than 300 µM in data set [1] (rabbit lung ACE, FRET substrate Abz-LFK(Dnp)-OH); 1.59 ± 0.11 µM with Colo 205 (Homo sapiens, COLO 205, 72 h); 7.7 ± 0.9 µM on ACE from rabbit lung (ACE from rabbit lung); 6.08 ± 0.24 µM in data set [2]; 35.7 ± 2.3 µM in data set [3] (rabbit lung ACE, FRET substrate Abz-SDK(Dnp)P-OH). In addition, the “IC50 (μM) ± SD, Colo 205” value with Colo 205 (72 h) is “notable antiproliferative activity”. The inhibition at 90 µM at ACE from rabbit lung (ACE from rabbit lung, 90 μM) was found to be 103 ± 1.5%. Moreover, on ACE from rabbit lung (Lineweaver-Burk, substrate Abz-Gly-Phe(NO2)-Pro), the “type of ACE inhibition (enzyme-kinetic studies)” value is on record as “mixed-type inhibition”. In addition, the “IC50 (μM) ± SD, Colo 320” value in data set [2] (MTT, 72 h, doxorubicin-resistant cells expressing ABCB1) is given as “notable antiproliferative activity”. Also, the “inhibition of HIV transcription” value in the data set with HIV transcription is “selective inhibitor of HIV transcription”. In addition, the “Inhibition (%) ± SD, N-Domain” value stood at 42.41 ± 0.8% in data set [3] (inhibitor 10 μM) and 55.74 ± 3.2% in data set [3] (inhibitor 50 μM).
In the case of `N.N.[Cl][Pt][Cl]` [Cisplatin, reference compound], in the data set on Colo 205 (72 h), the IC50 stood at 53.9 ± 3.92 µM.
In the case of `Oc1ccc(/C=C/c2cc(O)cc(O)c2)cc1` [Compound 12, trans-resveratrol], in data set [4], the “IC50 (μM) ± SD, Colo 320” value is given as “notable antiproliferative activity”. Further, the “IC50 (μM) ± SD, Colo 205” value with Colo 205 (72 h) is “notable antiproliferative activity”. The IC50 with Colo 205 (Homo sapiens, COLO 205, 72 h) is 48.3 ± 1.54 µM; in data set [2], 40.4 ± 1.84 µM.
Consider `Oc1ccc(/C=C\c2cc(O)cc3c2C(c2cc(O)cc(O)c2)C(c2ccc(O)cc2)O3)cc1` (stereo not drawn) [Compound 13, cis-ε-viniferin], for which the IC50 with Colo 205 (Homo sapiens, COLO 205, 72 h) was greater than 100 µM; on ACE from rabbit lung (ACE from rabbit lung), 18 ± 1.2 µM; in data set [2], greater than 100 µM. The inhibition at 90 µM at ACE from rabbit lung was 95.5 ± 2.8%.
Turning to `Oc1ccc(/C=C/c2cc(O)cc3c2C(c2cc(O)cc(O)c2)C(c2ccc(O)cc2)O3)cc1` (stereo not drawn) [Compound 14, trans-ε-viniferin], the IC50 in the data set on Colo 205 (Homo sapiens, COLO 205, 72 h) is greater than 100 µM; against ACE from rabbit lung (ACE from rabbit lung) it was 14 ± 0.7 µM; in data set [2] it was greater than 100 µM. The inhibition at 90 µM at ACE from rabbit lung worked out at 107 ± 1.1%.
Regarding `Oc1ccc(/C=C\c2cc(O)cc3c2[C@H](c2cc(O)cc4c2[C@H](c2cc(O)cc(O)c2)[C@@H](c2ccc(O)cc2)O4)[C@@H](c2ccc(O)cc2)O3)cc1` [Compound 15, Z-miyabenol C], the IC50 in the data set with Colo 205 (Homo sapiens, COLO 205, 72 h) was greater than 100 µM; at ACE from rabbit lung (ACE from rabbit lung) it was 15.2 ± 0.4 µM; in data set [2], greater than 100 µM. Moreover, at ACE from rabbit lung (ACE from rabbit lung, 90 μM), the inhibition at 90 µM is 96.7 ± 6.3%.
`O=c1ccoc2cc(O)cc(O)c12` [Compound 22, 5,7-dihydroxychromone]: the inhibition of germination entry with velvetleaf seeds is on record as “inhibited the germination of velvetleaf seeds”.
Regarding `COc1cccc2c1C(=O)c1c(O)c3c(c(O)c1C2=O)C[C@@](O)(C(=O)CO)C[C@@H]3O[C@H]1C[C@H](N)[C@H](O)[C@H](C)O1` [Doxorubicin, reference compound], the IC50 in the data set on Colo 205 (Homo sapiens, COLO 205, 72 h) was 0.33 ± 0.03 µM; in data set [2], 0.67 ± 0.06 µM.
As to “bradykinin-potentiating peptide b [BPPb, reference compound]”, the “Inhibition (%) ± SD, C-Domain” value in data set [1] (inhibitor 200 nM) worked out at 83.20 ± 3.6%. In addition, the “Inhibition (%) ± SD, N-Domain” value in data set [3] (inhibitor 200 nM) is on record as 5.2 ± 0.2%.
For kobophenol A [Compound 17], the values for the IC50 (in data set [4]; in the data set with Colo 205 (72 h); against ACE from rabbit lung (ACE from rabbit lung)) were greater than 100 µM, greater than 100 µM and 14.8 ± 0.8 µM, respectively. Also, on ACE from rabbit lung (ACE from rabbit lung, 90 μM), the “Inhibition at 90 μM (%) ± SD” value came out at 98.5 ± 1.2%.
